Experimental data: US12691151B2, “Methods and compositions for improving oncolytic virus infection for nonpermissive cancers” (Arizona Board of Regents on behalf of Arizona State …, priority 2019, dated 2026)
“Also recorded” adds a separate entry of the source.

Test system: HT29 cells
Format: cell-based, human

SMILES: CCC(=C/[C@H](C)C/C=C/C(C)=C/[C@@H](C)C(=O)[C@@H](C)[C@H](O)[C@@H](C)C/C(C)=C/C(=O)O)/C=C/[C@@H]1OC(=O)C=C[C@@H]1C [Leptomycin B]
- cell killing ability of MYXV: further enhanced the cell killing ability of MYXV
- cell viability (ATP), Leptomycin B pretreatment plus MYXV: further reduced the viability; also recorded: reduced cell viability
- cell viability (ATP) (64 h): sensitive to Leptomycin B treatment alone
